Laboratory results as given in publication PMC11990103, “Anticancer Activity and Safety Profile of Novel 1-(4-Fluorophenoxyacetyl)-4-substituted Thio/Semicarbazide Derivatives” (Molecules, 2025).

Legend:
Format in all cases: cell-based, human
G-361 melanoma cells = test: Apoptosis detection, annexin V and propidium iodide; details: G-361, 48 h, concentration approximate to IC50
Protocol: (§1) To further evaluate the anticancer activity of thiosemicarbazide derivative AB2 in G-361 and LNCaP cell lines, cell cycle analysis by image cytometry and detection of apoptosis using annexin V and propidium iodide was performed. Analyses of the action of AB2 on the distribution of cells in different phases of the cell cycle indicated a significant increase in the population of cells in the sub-G1 phase compared to the control cultures, in both tested prostate and melanoma cells. This population increased from 7% and 5% in control cells to 26% and 27% after exposure to AB2 in LNCaP and G-361 cells, respectively (Figure 8A). The increase in the cell population in the sub-G1 phase indicates the presence of apoptosis or necrosis in the investigated cells and not a significant inhibition of cell proliferation, i.e., a cytostatic effect.
(§2) In prostate cancer cells, the percentage of early apoptotic cells substantially elevated after AB2 treatment compared with the control group, indicating the initial activation of the apoptotic pathway. […] The percentage of cells in the early phase of apoptosis is approximately 36% and 28% in LNCaP and G-361 cells, respectively (Figure 8B). At the same time, the population of cells in late apoptosis increased in both cell lines, implying a progression of the apoptotic process after AB2 exposure. […]

[1] = system: LNCaP prostate cancer cells; test: as above; details: 48 h, concentration approximate to IC50
Protocol: as §1, §2

BJ fibroblasts = test: MTT cytotoxicity assay, normal cells; details: 48 h treatment, read-out: IC50 BJ (fibroblast)
Protocol: These cancer cell lines comprised prostate cancer (PC-3, DU-145, LNCaP), melanoma (SK-MEL28, A375, G-361), breast cancer (MCF-7, MDA-MB-231), and lung cancer (NCI-H1563). The MTT assay was carried out across a wide range of concentrations for 48 h.
The research was conducted on one primary cell line: BJ (fibroblast) and four types of cancerous ones: three prostate cancer cell lines (PC-3, DU-145, LNCaP); 3 Melanoma cell lines (MEL-28, A375, G-361); 2 breast cancer cell lines (MCF-7, MDA-MB-23) and one lung cancer cell line (NCI-H1563). All cell lines were obtained from the American Type Culture Collection (ATCC, Manassas, VA, USA) and were grown in media (Corning, New York, NY, USA) according to ATCC guidelines. The culture media was enriched with 10% heat-inactivated fetal bovine serum (Life Technologies, Carlsbad, CA, USA) and antibiotics: penicillin (100 units) and streptomycin (100 μg/mL) from Sigma-Aldrich (St. Louis, MO, USA). The cells were incubated at 37 °C with 5% CO2 in air.
The cytotoxic analysis of thiosemicarbazides (TSC) (AB1–AB6) and semicarbazides (SC) (AB7–AB12) was conducted in various concentrations. […] The cells were treated with compounds or DMSO as a vehicle in control cultures for 48h. IC50 values were determined using the AAT Bioquest IC50 calculator (AAT Bioquest, Inc., Pleasanton, CA, USA, Quest Graph™ EC50 Calculator. https://www.aatbio.com/tools/ec50-calculator) (accessed on 7 October 2024).
The cytotoxic activity of the thiosemicarbazides and semicarbazides was measured using the MTT colorimetric assay (MTT Cell Proliferation Assay Kit—Invitrogen, Waltham, MA, USA). The cells were seeded in the 96-well plates at a density of 1.5 × 10^5 cells/mL. After reaching 70–80% of confluence, the tested compounds in a wide range of concentrations were added. Plates were incubated for 48 h at 37 °C in 5% CO2 air. Then, […] tetrazolium salt (3-(4,5-dimethylthiazol-2-yl)-2,5-diphenyltetrazolium bromide)—MTT reagent (0.5 mg/mL) dissolved in PBS was added to each well for 4 h. The MTT solution was then removed from above the water-insoluble purple formazan crystals, which were then dissolved in DMSO (dimethyl sulfoxide, […]; POCH, Gliwice, Poland). The absorbance value of obtained solutions was measured using a PowerWave ™ microplate spectrophotometer (Bio-Tek Instruments, Winooski, VT, USA) at a wavelength of 570 nm. Each cytotoxicity assay was repeated three times in triplicates.

## O=C(COc1ccc(F)cc1)NNC(=S)Nc1ccccc1Cl [AB2]
G-361 melanoma cells
  early apoptotic cells (Q1lr): ~28%
[1]
  late apoptotic cells (Q1ur): 37%
BJ fibroblasts
  IC50: 453 µM
